Measured values from ChEMBL document CHEMBL3507680, “University of Dundee, Gates Library screen for HepG2 cell viability”.

Assay: Human HepG2 cell viability assay in 384 well format
Format: toxicity, cell-based
Parameters: dose 125 nL, time 70.5 hour; concentration not given beside the values
Conditions: HepG2 cells, read-out: Inhibition

| SMILES | cytotoxicity at 70.5 h [%] |
| --- | --- |
| COc1ccc(-c2nnc(CN3CCNC(=O)C3)o2)cc1 | -2.61 |
| CC(Oc1ccc(S(C)(=O)=O)cc1)C(=O)NC(N)=O (configuration not stated) | -7.21 |
| Cc1ccc(-c2nnc(CN3CCNC(=O)C3)o2)cc1 | -4.25 |
| Cc1cc(NC(=O)NCCc2ccc(S(N)(=O)=O)cc2)n(C)n1 | -6.71 |
| Cc1cc(NC(=O)NCCc2cccnc2)n(C)n1 | -3.88 |
| CC(Cn1cccn1)NC(=O)Nc1cccnc1 (configuration not stated) | -8.71 |
| COc1ccc(NC(=O)NC(C)Cn2cccn2)cn1 (configuration not stated) | -11.6 |
| CC(NC(=O)N(C)Cc1ccc2c(c1)OCO2)c1nncn1C (configuration not stated) | -8.56 |
| NC(=O)CN1CCCN(C(=O)c2ccn(-c3ccc(F)cc3)n2)CC1 | 6.29 |
| CNC(=O)CN(C)Cc1ccc(F)cc1Cl | -6.72 |
| Cn1ccnc1-c1cccc(NC(=O)NCCCN2CCOCC2)c1 | -2.94 |
| CCn1nc2c(cc1=O)CN(CC(=O)Nc1cc(C(C)C)no1)CC2 | -8.8 |
| O=C(CSc1ccc2c(c1)OCCO2)NS(=O)(=O)c1cccnc1 | -3.19 |
| O=C(CSc1ccc2c(c1)OCCO2)NS(=O)(=O)c1ccccc1 | -8.6 |
| Cn1cc(-c2csc(N3CCCCCC3)n2)cn1 | -1.01 |
| CC(=O)Nc1ccc(CN2CCOC2=O)cc1 | -9.56 |
| CSc1ccc(S(=O)(=O)NC2CNC(=O)C2)cc1 (configuration not stated) | -3.59 |
| CCOCCNC(=O)Nc1cccc(-c2nccn2C)c1 | -10 |
| Cn1cc(-c2nc(CN3CCn4c(nnc4C4CC4)C3)cs2)cn1 | -4.85 |
| O=C(CSc1ccc2c(c1)OCCO2)NS(=O)(=O)c1ccccc1F | -5.01 |
| COCCNC(=O)CN(C)Cc1ccc(F)cc1Cl | -10.1 |
| CC(C#N)CSc1ccccc1NCC(=O)Nc1ccccc1 (configuration not stated) | 14.3 |

| SMILES | cytotoxicity at 70.5 h [%] |
| --- | --- |
| COc1ccc(CNC(=O)CN2CCc3ccccc32)cc1 | 27 |
| O=C(CSc1nncs1)N1CCN(Cc2ccc(Cl)cc2)CC1 | 1.53 |
| O=C1NCCCCC1Sc1n[nH]c(=O)n1C1CC1 (configuration not stated) | 15.9 |
| COc1cccnc1NC(=O)COc1c(C)cccc1C | 18.3 |
| O=C(CCc1ccsc1)NCC1CCN(Cc2cccs2)CC1 | -4.26 |
| CC1CCN(CCNC(=O)C2CCN(C(=O)NC(C)C)CC2)CC1 | -6.3 |
| COc1cccc(NC(=O)NC(C)(C)c2noc(C)n2)c1 | -4.79 |
| CNC(=O)CCNC(=O)Nc1cccc(Cl)c1SC(F)F | 0.534 |
| O=C(CNC(=O)Nc1cccc(Cl)c1SC(F)F)NC1CC1 | 16.9 |
| Cn1cc(CC(=O)N2CCOC(c3nc(C(C)(C)C)n[nH]3)C2)cn1 (configuration not stated) | -1.3 |
| COCCN(Cc1ccc(F)cc1Cl)C(=O)c1csnn1 | -2.37 |
| O=C(Nc1ccnc(OC2CCOC2)c1)c1cccs1 (configuration not stated) | -4.23 |
| Cc1ccn(-c2ccccc2NCc2scnc2C)n1 | -1.69 |
| OCC1CCN(Cc2cc3c(cc2Br)OCCO3)CC1 | 17.4 |
| CCC1CN(Cc2nnc(C3CC3)o2)CCN1CCOC (configuration not stated) | 0.024 |
| CCOCCN1CCN(Cc2nnc(C3CC3)o2)CC1C (configuration not stated) | -3.62 |
| CN(Cc1ccco1)C(=O)Nc1ccc(=O)n(C)c1 | 0.639 |
| COc1cccc(CNC(C)c2ccc(-n3ccnc3)cc2)c1O (configuration not stated) | -5.24 |
| Cn1cc(CNC2CCS(=O)(=O)C2)c(-c2cc3ccccc3o2)n1 (configuration not stated) | 5.22 |
| CCCc1[nH]n(C)c(=N)c1-c1ccc2c(c1)OCO2 | -3.98 |
| CCn1c(=O)n(Cc2nc(C3CC3)no2)c2ccccc21 | 23.4 |
| CCNC(=O)N1CCC(NC(=O)NCCc2cc3ccccc3o2)C1 (configuration not stated) | 11.5 |

| SMILES | cytotoxicity at 70.5 h [%] |
| --- | --- |
| COc1ccc(Cl)cc1CNC(=O)CN1CCC2(CCOC2)C1 (configuration not stated) | 20 |
| CCOc1cccc(CNC(=O)CN2CCC3(CCOC3)C2)c1 (configuration not stated) | -6.18 |
| CC(NC(=O)N(C)Cc1ccncc1)c1cn(-c2ccccc2)nn1 (configuration not stated) | 4.1 |
| CCCc1nc(Cn2c(=O)n(C)c3ccccc32)no1 | -6.48 |
| CCOc1cccc(CNC(C)c2ccc(-n3ccnc3)cc2)c1O (configuration not stated) | 2.29 |
| CCC(SC)C(=O)N1CCC(n2ccnn2)CC1 (configuration not stated) | -7.09 |
| O=C(C(C1CC1)C1CC1)N1CCC(n2ccnn2)CC1 | -9.3 |
| Fc1ccc(C2CN(c3ncnc4[nH]ncc34)CCO2)cc1 (configuration not stated) | 12.2 |
| c1ccc(-n2nnnc2NCc2ccc3c(c2)OCO3)cc1 | 4.41 |
| CC(Nc1cnn(C)c(=O)c1Cl)c1ccc(F)c(F)c1 (configuration not stated) | 39.8 |
| NC(=O)CNC1(c2ccc(Cl)cc2)CCCC1 | 0.922 |
| Cc1cc(S(C)(=O)=O)c(C)c(S(=O)(=O)N2CCCCCC2)c1 | -7.91 |
| Cc1cc(S(C)(=O)=O)c(C)c(S(=O)(=O)N2CCN(C)CC2)c1 | 32.6 |
| CC(C)(C)CC(=O)NCC(=O)Nc1ccn(Cc2ccncc2)n1 | -20.8 |
| NC(=O)NC(=O)CNC1(c2ccc(Cl)cc2)CCC1 | 2.08 |
| Cn1nc(Br)c2c(NCCSCCCO)ncnc21 | -10.5 |
| CC(NC(=O)N1CCNC(=O)CC1)c1ccc(C(F)(F)F)cc1 (configuration not stated) | -19.2 |
| CCOCCN1CCCC1CS(N)(=O)=O (configuration not stated) | -10.1 |
| CC(NC(=O)N1CCNC(=O)CC1)c1ccc(OC(F)F)cc1 (configuration not stated) | -8.12 |
| Cc1ccc(-n2nc(C)cc2N)nn1 | -14.8 |
| CCC(NC(=O)NCc1cccc(N(C)C)n1)c1cccs1 (configuration not stated) | -11.8 |
| CSCC(CCO)NC(=O)c1cccc(C)c1Cl (configuration not stated) | -13.9 |

| SMILES | cytotoxicity at 70.5 h [%] |
| --- | --- |
| CC(Nc1cnn(C)c(=O)c1Cl)c1ccc(F)cc1 (configuration not stated) | -13.1 |
| CN(CC(=O)NCc1ccco1)Cc1nc2c(s1)CCCC2 | 4 |
| COCCn1ccc(NC(=O)CNC(=O)CC(C)(C)C)n1 | 27.5 |
| COCCN1CCN(CC(=O)N(C)Cc2ccc(F)cc2)CC1C (configuration not stated) | 23.3 |
| CN(CCCc1cc(-c2cccc(F)c2)n[nH]1)C(=O)CCn1cncn1 | -13.6 |
| O=C(c1cnns1)N1CCN(Cc2ccc(F)cc2Cl)CC1 | -4.81 |
| COc1cccc(N2CCC(CNC(=O)NCc3ccco3)C2)c1 (configuration not stated) | -0.834 |
| COc1cccc(N2CCC(CNC(=O)N(C)Cc3ccco3)C2)c1 (configuration not stated) | -3.66 |
| COCCN1CCN(CC(=O)N(C)Cc2ccc(C)o2)CC1C (configuration not stated) | -12.6 |
| CS(=O)(=O)CCNCc1ccc(OCc2ccncc2)cc1 | 19.2 |
| Cn1nc2c(cc1=O)CN(Cc1ccc(-n3cccn3)cc1)CC2 | -6.38 |
| CN1CCC(NC(=O)Nc2ccc(Cl)c(F)c2)C1=O (configuration not stated) | 2.58 |
| CC(C)CN1C(=O)C2(CCCC2)NC12CCSCC2 | 0.871 |
| O=C1CN(C(=O)C2CCOCC2)CCN1Cc1ccc(Cl)cc1 | 0.576 |
| CN(C)c1nccc(CNS(=O)(=O)c2cc(Cl)cc(Cl)c2)n1 | -1.35 |
| OCC(O)CSCc1cc(Cl)ccc1Cl (configuration not stated) | -3.91 |
| OCC(O)CSCc1ccc(F)cc1Cl (configuration not stated) | 19.6 |
| CCN(Cc1cccc(NC(=O)COCCOC)c1)C(C)=O | 1.86 |
| COc1ccccc1N1CCC(CNC(=O)N(C)Cc2ccco2)C1 (configuration not stated) | -3.56 |
| CN(CCCc1cc(-c2ccc(F)cc2)n[nH]1)C(=O)CCn1cncn1 | 1.64 |
| CN(CCCc1cc(-c2ccccc2)n[nH]1)C(=O)CCCn1cncn1 | -6.04 |
